“And” between values parts separate entries of the source, which are not always exact repeats. Equal entries are not always repeated.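 Results reflect a 48-hour exposure of cells in 96-well plates to compound at five concentrations. At the GI50, growth is halved. Definition used: TGI = concentration required for complete inhibition of growth.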
Experiments:
Test in all cases: NCI anticancer screen, dose series, 48 h
ACHN renal = tested on: ACHN renal
HCT-116 colon = tested on: HCT-116 colon
MCF7 breast = tested on: MCF7 breast
MOLT-4 leukemia = tested on: MOLT-4 leukemia
NCI-H460 lung = tested on: NCI-H460 lung
NCI-H522 lung = tested on: NCI-H522 lung
OVCAR-8 ovarian = tested on: OVCAR-8 ovarian
SF-268 CNS = tested on: SF-268 CNS
SF-295 CNS = tested on: SF-295 CNS
SR leukemia = tested on: SR leukemia

Compound	GI50 (ACHN renal)	TGI (ACHN renal)	GI50 (HCT-116 colon)	TGI (HCT-116 colon)	GI50 (MCF7 breast) [µM]	TGI (MCF7 breast)	GI50 (MOLT-4 leukemia)	TGI (MOLT-4 leukemia)	GI50 (NCI-H460 lung)	TGI (NCI-H460 lung)	GI50 (NCI-H522 lung)	TGI (NCI-H522 lung)	GI50 (OVCAR-8 ovarian)	TGI (OVCAR-8 ovarian)	GI50 (SF-268 CNS)	TGI (SF-268 CNS)	GI50 (SF-295 CNS)	TGI (SF-295 CNS)	GI50 (SR leukemia)	TGI (SR leukemia) [µM]
C[C@H]1[C@H](C)CC[C@]2(C(=O)O)CC[C@]3(C)C(=CC[C@@H]4[C@@]5(C)CC[C@H](OC(=O)/C=C/c6ccc(O)cc6)C(C)(C)[C@@H]5CC[C@]43C)[C@H]12	5.05 µM	9.12 µM	3.09 µM	7.93 µM	3.02	34.4 µM	4.42 µM	49.7 µM	7.08 µM	> 65.9 µM	9.45 µM	23 µM	2.8 µM	18.3 µM	3.23 µM	12 µM	2.27 µM	7.04 µM	3.77 µM	24.2
Nc1nc(N)c2c(ccc3nccc32)[nH]1	4.24 µM	36 µM	0.934 µM	> 71.2 µM	2.26	15.5 µM	3.12 µM	> 92.1 µM	0.439 µM	14.5 µM	4.88 µM	24.3 µM	4.62 µM	> 100 µM	2.11 µM	56.2 µM	1.95 µM	> 91.3 µM	1.29 µM	–
CCOC(=O)Cn1c(C)c(/C=N/NC(=O)c2cc3c(ccc4ccccc43)o2)c2ccccc21	0.926 µM	3.21 µM	0.338 µM	1.46 µM	0.31	4.85 µM	0.96 µM	> 30.1 µM	0.383 µM	1.79 µM	0.399 µM	6.93 µM	0.486 µM	–	1.03 µM	–	0.323 µM	1.65 µM	0.153 µM	> 21.8
CC1(C)CC(OCCCC[P+](c2ccccc2)(c2ccccc2)c2ccccc2)CC(C)(C)N1O	2.39 µM	7.28 µM	0.238 µM	3.61 µM	0.203	1.2 µM	0.34 µM	4.12 µM	0.282 µM	1.52 µM	0.275 µM	1.16 µM	0.333 µM	2.61 µM	0.412 µM	1.88 µM	0.337 µM	1.39 µM	0.273 µM	1.54
Cc1cccc(NC(=O)CCl)c1	–	> 10 µM	–	> 10 µM	–	> 10 µM	–	> 10 µM	–	> 10 µM	–	4.32 µM	–	> 10 µM	–	> 10 µM	–	> 10 µM	–	> 10
C#C[C@@]1(O)[C@@H](CO)O[C@@H](n2ccc3c(N)ncnc32)[C@@H]1O	0.56 µM	4.48 µM	0.595 µM	10.8 µM	0.239	5.67 µM	0.614 µM	> 100 µM	0.473 µM	10.6 µM	0.37 µM	3.82 µM	1.03 µM	4.11 µM	2.33 µM	26.1 µM	1.73 µM	5.33 µM	0.817 µM	> 100
CC1(O)CC2(O)C=CC3=C(C(=O)c4cccc(O)c4C3=O)C2(O)C(=O)C1O (centres undefined)	–	3.1 µM	–	2.05 µM	–	2.6 µM	–	2.8 µM	–	34.3 µM	–	0.29 µM	–	8.08 µM	–	17.1 µM	–	26.7 µM	–	18.1
CN(C)C(=O)c1cc2cnc(Nc3ccc(-c4csc5c(=O)cc(N6CCNCC6)oc45)cc3)nc2n1C1CCCC1	1.78 µM	5.51 µM	0.318 µM	1.4 µM	0.294	1.57 µM	0.368 µM	2.11 µM	0.814 µM	2.35 µM	0.473 µM	2.55 µM	1.21 µM	> 42.5 µM	0.638 µM	4.09 µM	2.1 µM	10.7 µM	0.231 µM	2.44
CN1CCN(Cc2ccc(NC(=O)c3nc4ccc5[nH]ncc5c4c4c3CCC4)cc2C(F)(F)F)CC1	0.861 µM	1.55 µM	0.856 µM	1.61 µM	0.906	1.82 µM	1.1 µM	2.58 µM	0.926 µM	1.73 µM	0.981 µM	2.31 µM	1.05 µM	2.22 µM	7.97 µM	16.5 µM	6.97 µM	13.8 µM	1.1 µM	2.68
O=C(NNc1ccccc1)OCc1ccccc1	6.9 µM	> 100 µM	12.4 µM	> 100 µM	26.2	> 100 µM	5.89 µM	> 100 µM	4.43 µM	> 100 µM	33.6 µM	> 100 µM	11.2 µM	> 100 µM	9.27 µM	> 100 µM	2.81 µM	28.2 µM	41.3 µM	> 100
CC[N+]1(C)CCC(O)(c2ccccc2)C(C(=O)c2ccccc2)C1 (centres undefined)	–	23 µM	–	34.7 µM	–	9.6 µM	–	11.3 µM	–	43 µM	–	3.29 µM	–	59.1 µM	–	59.8 µM	–	35.9 µM	–	15.6
CC1(C)CC(=O)c2c(ccc(C(=O)C[C@H](N)CO)c2N)O1	4.49 µM and 0.962 µM	17.5 µM and > 33.3 µM	1.36 µM and 2.01 µM	17.5 µM and > 33.3 µM	–	17.5 µM and > 33.3 µM	1.61 µM and 0.177 µM	17.5 µM and 26.7 µM	0.89 µM and 0.129 µM	17.5 µM and > 33.3 µM	2.57 µM and 4.58 µM	17.5 µM	5.68 µM and 2.17 µM	17.5 µM and > 33.3 µM	5.03 µM and 0.594 µM	17.5 µM and > 33.3 µM	5.66 µM and 3.65 µM	17.5 µM and > 33.3 µM	0.612 µM and 0.0752 µM	–
COc1ccc2[nH]c(=O)c(/C=C/C(=O)/C=C/c3ccc(O)c(OC)c3)cc2c1	1.68 µM	3.13 µM	0.164 µM	0.338 µM	0.388	1.89 µM	2.93 µM	> 100 µM	2.04 µM	5 µM	1.74 µM	3.87 µM	1.52 µM	11.5 µM	2.25 µM	7.14 µM	2.36 µM	7.36 µM	0.381 µM	> 100
O=C(O)c1ccc(NCc2nc3cc4ccccc4cc3[nH]2)cc1	–	> 100 µM	–	> 100 µM	–	46.9 µM	–	> 100 µM	–	> 100 µM	–	> 100 µM	–	> 100 µM	–	> 100 µM	–	> 100 µM	–	> 100
C/C(=N\NC(=O)c1ccccc1O)c1cccc(/C(C)=N/NC(=O)c2ccccc2O)n1	0.668 µM	50.5 µM and > 62.9 µM	5.85 µM and 0.619 µM	66.9 µM and 28.4 µM	7.8	> 100 µM	0.424 µM	17.5 µM and > 100 µM	0.535 µM	74.1 µM and > 100 µM	4.75 µM and 0.856 µM	27.8 µM and > 100 µM	0.571 µM	51.6 µM and > 100 µM	0.28 µM	56.5 µM and > 100 µM	0.33 µM	59.1 µM and > 36.1 µM	–	> 100
